Reference: US20100275328A1, “METHOD OF SELECTIVELY PRODUCING MALE OR FEMALE STERILE PLANTS” (Syngenta Limited, priority 2003, published 2010)

Legend:
D-amino acid oxidase = test: Control experiments: oxidation of pure L and pure D form of phosphinothricin by D-amino acid oxidase; type: biochemical, Rhodotorula gracilis; details: oxygen electrode
Description: Approximately 7 g wet weight of cells is washed in water. The cells are resuspended in an equal volume of 50 mM/Mops/KOH buffer at pH 7.0 containing 2 mM EDTA, 2 mM DTT and 0.01 mM FAD. Cells are evenly suspended using a glass homogeniser and then disrupted using a one shot head in the Constant Systems (BudBrooke Rd, Warwick U.K.) Basic Z cell disrupter at 13500 psi. The crude extract is kept cold (−4° C.) centrifuged at 30,000 gav for 1 h and the pellet discarded. Some of the extract protein is run out on an SDS PAGE gel stained with Coomassie Blue and, through side by side comparison with similarly prepared extracts of cells containing only ‘empty’ pET vector it is estimated that 2-50% of the total soluble protein in the extract is D-amino acid oxidase. Some of the extract protein is exchanged into 50 mM Mops/KOH buffer at pH 7.0 containing 0.01 mM FAD. This is diluted with the same buffer in a standard oxygen electrode cell (calibrated at 25° C. between zero and a saturated concentration of oxygen). Optionally, the D-amino acid oxidase is further purified using ion-exchange, phenyl sepharose, fractional ammonium sulphate precipitation and gel filtration. […] Final amounts of protein in the cell vary up to 5 mg depending on the level of activity being measured. Rates of oxygen consumption (after substraction of any drift in the bases line) are measured.

[1] = system: Nicotiana tabacum var. Samsun; test: Conditional female sterility of transgenic tobacco expressing mutant D-amino acid oxidase in female floral tissue; type: in vivo; details: for seed production after treatment / pollen production after treatment: transgenic tobacco; for seed production after treatment: female floral promoter-DAMOX, foliar spray, root drench or bud application; for pollen production after treatment: same treatment conditions
Description: Tobacco leaf discs are transformed with the recombinant binary vectors using methods similar to those described in Horsch et al (1985) Science, 227, 1229-1231. Many variations of the method may be used. The binary vector can be transformed into, for example, Agrobacterium tumefaciens strain LBA 4404 using the freeze thaw method of transformation. Tobacco transformation and whole plant regeneration is performed using Nicotiana tabacum var. Samsun according to protocols described by Draper et al (Plant Genetic Transformation, Blackwell Sci. Pub. 1989). Transformation events are selected on MS-media containing kanamycin or other suitable antibiotic. The presence of integrated transgenes is confirmed by PCR. Plants are regenerated and allowed to reach maturity and selfed on to produce seed. Northern and/or Western analysis is used to confirm tissue-specific expression of the D-amino acid oxidase genes. The selected plants are self-fertile but have the condition of conditional female sterility. Seeds of the T1 generation are planted out. Once plantlets have grown to a sufficient size they are tested by PCR for the presence of transgene. PCR positive plants are transferred to the greenhouse. These plants are fully fertile in the absence of exogenously applied proherbicide. A subset of these (putatively) conditionally sterile plants are treated with D-phosphinothricin or D-aspartate or D-glutamate in various amounts and at varying growth stages. Such treatments are carried out on the T1 plants confirmed as PCR positive for the D-amino acid oxidase gene, or, equally, such treatments are carried out directly on plants of the To generation (which are vegetatively cloned so that untreated clones of each event may be set aside for seed production). […] For example these amino acids are pure D enantiomers or, alternatively, are DL racemates. For example, they are applied as a foliar spray, prior to or during the early stages of flower formation, at rates usually between 0.25 and 20 kg/ha. Amino acids which may crystallise out of solution on the leaves following foliar application may be redissolved and remobilised for leaf uptake by further applications of water as a spray mist. Amino acids are, for example, also applied as a root drench and optionally, further applied as ˜50 ul of a 10-200 mM solution flooded directly into the buds of emerging florets. Pollen from the treated plants is collected and viability is tested. […] Controls include both transgenic and non-transgenic plants and are grown under identical conditions and under an identical regime of physical treatments except that treatment solutions are either water or an equivalent concentration of pure L-amino acid.
In one variant of the method, the amino acid applied is racemic DL phosphinothricin. In this case, the DNA construct used for transformation comprises, in addition to the DNA sequence encoding a D-amino acid oxidase under operable expression control of a tissue specific female floral promoter region such as ‘stig 1’, also a DNA sequence (EMBL: A02774) a […] under operable control of a promoter region such as the region 5′ of the translational start of the plastocyanin gene of the Pisum sativum plastocyanin gene (EMBL accession number X16082). For example, the construct is the same as depicted in FIG. 1.
The plastocyanin promoter region provides for preferential expression in the green tissues of the plant. […] Furthermore, in the absence of the heterologous D-amino acid oxidase being co-expressed in the floral tissues, the plastocyanin/PAT gene combination provides essentially complete reproductive tolerance with no significant loss of yield despite the PAT expression level being low or non-existent in many of the critical floral tissues when expressed under control of this promoter region. […]

wheat = test: Reproductive tolerance of wheat containing PAT gene under barley plastocyanin promoter; type: in vivo; details: wheat with PAT under barley plastocyanin promoter; rates of at least 2 kg/ha
From the text: The current invention provides a method of overcoming the problem of enabling the use of a cheap commercial herbicide, DL phosphinothricin, as both weed control and hybridising agent in the production of hybrid cereals and which method, furthermore, provides resultant hybrid cereals or rice in which DL phosphinothricin (or L-phosphinothricin) can be safely used for weed control without substantial loss of yield. As a yet further benefit, selfed seed from the F1 generation which may later arise as volunteers in subsequent crops will be easier to manage since they, themselves, will generally be sterile if sprayed with controlling amounts of DL phosphinothricin. The same holds for the progeny of pollen outcrossing from the F1 plants to weeds (e.g red rice) or other cereals. The current invention provides genes and enzymes that convert a non-phytotoxic component, D-phosphinothricin, of a commercial herbicide formulation DL phosphinothricin, into the active L form. The PAT gene which converts L-phosphinothricin to N-acetyl L-phosphinothricin is known already and is used commercially to provide tolerance to DL phosphinothricin in crops. […]

Tobacco plants = test: Conditional male sterility of transgenic tobacco expressing mutant D-amino acid oxidase in male floral tissue; type: in vivo; details: rates between 250 g/ha and 5 kg/ha; TAP1 or TA29-DAMOX plus plastocyanin-PAT tobacco
Description: Tobacco plant material is transformed, via Agrobacterium, with vector and transgenic plants are regenerated in a similar manner to that described in the previous example. The plants produced are self-fertile but are conditionally male sterile. Seeds of the T1 generation are planted out into soil. Once plantlets have grown to a sufficient size they are tested by PCR for the presence of transgene. PCR positive plants are transferred to the greenhouse. These plants are fully fertile in the absence of exogenously applied proherbicide. A subset of these putatively conditionally sterile T1 plants, or, alternatively plantlets of T0 ‘events’ (direct regenerants from transformation) are treated with D-phosphinothricin or D-aspartate or D-glutamate in various amounts and at varying growth stages. Where To plants are treated they are vegetatively cloned so that untreated siblings of the events are set aside for seed production. […] For example these amino acids are pure D enantiomers or, alternatively, are DL racemates. For example, they are applied as a foliar spray, prior to or during the early stages of flower formation, at rates usually between 0.25 and 20 kg/ha. Amino acids which may crystallise out of solution on the leaves following foliar application may be redissolved and remobilised for leaf uptake by further applications of water as a spray mist. […]

[2] = rates between 250 g/ha and 5 kg/ha, stig1-DAMOX plus plastocyanin-PAT tobacco

CP(=O)(O)CC[C@@H](N)C(=O)O [D-phosphinothricin]
oxidation of pure enantiomer of phosphinothricin (D-amino acid oxidase): up to twice the rate that the DL racemate is | seed production after treatment [1]: relatively little or no seed | pollen production after treatment [1]: near normal levels of viable pollen

N[C@H](CCC(=O)O)C(=O)O [D-glutamate]
seed production after treatment [1]: relatively little or no seed | pollen production after treatment [1]: near normal levels of viable pollen

CP(=O)(O)CCC(N)C(=O)O (stereo not drawn) [DL phosphinothricin]
reproductive tolerance to the herbicide ([1]; plastocyanin promoter/PAT gene, rates in excess of 2 kg/ha): substantially complete reproductive tolerance | female fertility of treated plants [1, 2]: rendered conditionally female sterile | visible damage of treated plants [1, 2]: not visibly damaged | reproductive tolerance to application (wheat): substantially reproductively tolerant | male fertility of treated plants (Tobacco plants): rendered conditionally male sterile | visible damage of treated plants (Tobacco plants): not visibly damaged

N[C@H](CC(=O)O)C(=O)O [D-aspartate]
seed production after treatment [1]: relatively little or no seed | pollen production after treatment [1]: near normal levels of viable pollen

CP(=O)(O)CC[C@H](N)C(=O)O [pure L-form, L-phosphinothricin]
oxidation of pure enantiomer of phosphinothricin (D-amino acid oxidase): not oxidised at detectable levels
